The test system of one data set is cellular HIV RNA. Put plainly: HIV qLDR on CD4-enriched PBMC lysates from HIV- and HIV+ participants. The settings on record: FIG. 10a-b; for detection of cellular HIV RNA in HIV+ HAART (latent) samples / detection of cellular HIV RNA in HIV- samples: CD4-enriched PBMC lysates, 20 mL blood; for detection between latent and HIV+ non-HAART (active) samples: including viremic participants and elite controllers. It counts as cell-based, human. The procedure:
For human sample testing (FIG. 10a-b) by HIV qLDR, CD4-enriched PBMC from HIV− and HIV+ participants were tested by the HIV qLDR probes SEQ ID NO: 9/SEQ ID NO: 10 for 2 kb tat-rev transcripts and SEQ ID NO: 5/SEQ ID NO: 6 for 9 kb and 4 kb transcripts. Lysates were tested from five individuals/class. Tests were performed in triplicate with 20 mL blood.

For data set [1], the system named is synthetic HIV RNA targets. In words: qLDR probe set testing against synthetic HIV RNA targets. The note with it: initial testing with synthetic HIV RNA targets. The procedure:
The qLDR reaction contained optimized probe concentrations at 10-100 pM and a total reaction volume of 50 μL. The qLDR reaction for each probe set was optimized against the commensurate synthetic HIV RNA targets using fluorescence microscopy and fluorescence emission in a 96-well format in a desktop fluorometer, with readings normalized to background.

Another data set has as its system HIV RNA of ACH-2 cells. Put plainly: HIV qLDR on PMA-activated ACH-2 cells in A3.01 cells (latent vs. active). It counts as cell-based. The settings on record: 10 ACH-2 cells in 10^6 A3.01 cells; PMA 1 μM for 0, 3, 8, 24 hr; FIG. 9. The procedure: For cell line testing (FIG. 9), ACH-2 and A3.01 cells were grown in T-75 flasks and plated at 1 mL per well in a 24-well culture plate in RPMI medium. After the wells reached 60% confluency, cells were activated for 0, 3, 8, and 24 hr with PMA (phorbal 12-myristate 13-acetate) at 1 μM final concentration per well. The experiment was performed such that each activation time endpoint represented the same total growth time. The activated ACH-2 cells were harvested from each well and counted. After preservation and shipping in 90% FBS/10% DMSO at −80° C., the cell suspensions were recounted, diluted and added at 10 cells into 10^6 A3.01 cells activated for the matching time period. HIV qLDR, using probes SEQ ID NO: 9/SEQ ID NO: 10 for 2 kb tat-rev transcripts, SEQ ID NO: 1/SEQ ID NO: 2 for 9 kb transcripts, and SEQ ID NO: 1/SEQ ID NO: 2 and SEQ ID NO: 5/SEQ ID NO: 6 for 4 kb transcripts, was performed on the cells and fluorometric readings in a 96-well plate format were normalized to background. […] Thus, the ratio of cell-based tat-rev to 4 kb/9 kb HIV RNA levels may be a useful measure of latent to active cell number.

A further data set deals with HIV pol/protease region. Put plainly: HIV qLDR compared with HIV RT-qPCR on human peripheral blood samples. It counts as cell-based. The settings on record: CD4+ T cells for qLDR, blood plasma for RT-qPCR; FIG. 11. The procedure: For human sample testing comparison with HIV RT-qPCR (FIG. 11), blood plasma was used for RT-qPCR and CD4+ T cells were used for qLDR. RT-qPCR was performed using primers and probe to the HIV gag-pol region, as described in Livak et al., 1995, for best comparison with HIV qLDR with probes SEQ ID NO: 1/SEQ ID NO: 2 to the HIV pol/protease region. HIV RNA was isolated from blood plasma samples prior to RT-qPCR. An RT-qPCR standard was prepared by in vitro transcription of a synthetic HIV T7 plasmid, and RNA copy number was determined using a standard curve generated with the RT-qPCR standard.

In the case of “SEQ ID NO: 9/SEQ ID NO: 10: fluorogenic PNA probe pair SEQ ID NO: 9 (Ald-1) and 10 (Ind), tat-rev, detects spliced 2 kb HIV-1 RNA (chain 1 CTTTG; chain 2 TGGGT; PNA; fluorogenic labels; Latent HIV-1 qLDR Oligonucleotide Probe; (1)..(1) Fluorogenic probe moiety attachment position on probe sequence; (1)..(5) Peptide nucleic acid 5′ Ald-CTTTG-DMLys-DMLys- CONH2; (1)..(5) Peptide nucleic acid 3′ Ind-TGGGT-DMLys-DMLys- CONH2; (5)..(5) Fluorogenic probe moiety attachment position on probe sequence)”, in the data set on cellular HIV RNA, the “detection of cellular HIV RNA in HIV+ HAART (latent) samples” value is given as “successfully detected”; the “detection of cellular HIV RNA in HIV- samples” value was “not in HIV—samples”; the “detection between latent and HIV+ non-HAART (active) samples” value is listed as “differential detection”. Besides, in data set [1], the detection efficiency entry is reported as “comparable detection efficiency”. For the same substance, the “change of fluorescence level through activation time course” value (from here on “change”) with HIV RNA of ACH-2 cells was “relatively little increase”.
As to “SEQ ID NO: 1/SEQ ID NO: 2: fluorogenic probe pair SEQ ID NO: 1 (Ald-1) and 2 (Ind), HIV-1 pol/protease, detects full length 9 kb RNA (chain 1 CCTGTATCTAATAGAGC; chain 2 TCTAATACTGTATCATCT; fluorogenic labels; Latent HIV-1 qLDR Oligonucleotide Probe; (1)..(1) Fluorogenic probe moiety attachment position on probe sequence; (18)..(18) Fluorogenic probe moiety attachment position on probe sequence)”, in the data set on HIV pol/protease region, the “correlation of HIV qLDR results with HIV RT-PCR viremia results” value is reported as “closely correlated”. For the same substance, the detection efficiency entry in data set [1] was “comparable detection efficiency”. Besides, the “change” value in the data set on HIV RNA of ACH-2 cells is reported as “marked increase”.
As to “SEQ ID NO: 5/SEQ ID NO: 6: fluorogenic probe pair SEQ ID NO: 5 (Ald-2) and 6 (Ind), HIV-1 gp160/41, detects 4 kb spliced and 9 kb RNA (chain 1 ATAGTGCTTCCTGCT; chain 2 GTCATTGAGGCTGCG; fluorogenic labels; Latent HIV-1 qLDR Oligonucleotide Probe; (1)..(1) Fluorogenic probe moiety attachment position on probe sequence; (15)..(15) Fluorogenic probe moiety attachment position on probe sequence)”, in the data set with cellular HIV RNA, the “detection of cellular HIV RNA in HIV+ HAART (latent) samples” value is reported as “successfully detected”; the “detection of cellular HIV RNA in HIV- samples” value is “not in HIV—samples”; the “detection between latent and HIV+ non-HAART (active) samples” value is on record as “differential detection”. For the same substance, the detection efficiency entry in data set [1] is given as “comparable detection efficiency”. The “change” value in the data set with HIV RNA of ACH-2 cells is “marked increase”.

Source of the values: patent US10400274B2, “Fluorogenic probes and their use in quantitative detection of target RNA sequences” (JAN BIOTECH, INC., priority 2016, dated 2019).
